Data as given in patent US20080045596A1, “Ep2 Receptor Agonists” (priority 2003, published 2008).
Where two headings read alike, the source gives them in different places.

Tests used:
[1] = test system: human myometrium; experiment: Electrical field stimulation (EFS) induced contractions of human myometrial strips
Procedure: The following describes an in vitro functional assay, using human myometrial smooth muscle, to determine the affinity of the test compounds at the EP2 receptor in human tissues.
Sections of human myometrium were prepared from samples of surgically removed uterus longitudinal myometrial muscle strips (2 mm wide by 10 mm long) were then cut and suspended between stainless steel hooks in organ chambers containing oxygenated (95% O2/5% CO2) Krebs solution at 37° C. The composition of the Krebs solution was as follows: NaCl (118.2 mM), KCl (4.69 mM), MgSO4.7H2O (1.18 mM), KH2PO4 (1.19 mM), glucose (11.1 mM), NaHCO3 (25.0 mM), CaCl2.6H2O (2.5 mM), indomethacin 3×10^−6M.
Tissues were placed under a tension equivalent to 25 mN and left overnight at room temperature. The following day the tissues were maintained at 37° C., washed and placed under a tension of 15 mN then allowed to equilibrate for a period of at least 30 minutes. Responses were recorded using isometric transducers coupled to an Apple Macintosh computer via a MacLab interface. After 60 minutes, the muscle sections of the human myometrium were stimulated electrically (15 ms pulse width, for 10 s every 100 s at 15V and 0.5-40 Hz) using parallel platinum wire electrodes and a Multistim D330 pulse stimulator. Upon electrical stimulation, the strips of human myometrial smooth muscle responded with a rapid contraction. Once the response to electrical stimulation had stabilised (stimulated responses differed by no more than 10%), the strips were exposed to increasing concentrations of test compounds (1×10^−7 to 1×10^−4M, incubated for at least 15 minutes at each concentration). At the end of the experiment, application of sodium nitroprusside (SNP, a nitric oxide donor that causes smooth muscle relaxation) (1×10^−4M) was used to produce a standard relaxatory response. To determine the affinity of the compounds, the concentration of test compound required to produce half-maximal effects (EC50) was calculated, as was the maximum response (calculated as a percentage of the standard response produced with SNP).

[2] = test system: interferon gamma release by lymphocytes; experiment: Lymphocyte assay: interferon gamma release; type: cell-based, human; details: FIG. 11, two donors
Source text: Lymphocytes are mononuclear leukocytes, which participate in specific immune responses to foreign antigens and in the manifestation of auto-immune diseases. T lymphocytes produce IL-2, a key factor for lymphocyte activation and proliferation, in response to antigen stimulation via the CD3-T cell receptor complex and the pathway involved in this response is the NF-AT. […] A lymphocyte assay was designed to model this response and to determine the effect of test compound on IL-2 production by anti-CD3-stimulated T cells isolated from peripheral blood. This assay uses a sub-optimal dose of an anti-CD3 monoclonal antibody (OKT3, 25 ng/ml) immobilised to a 96-well plate to stimulate a T cell response. The level of IL-2 released into the cell culture supernatants was quantified using a standard sandwich ELISA. Similarly, other cytokines such as TNFα and IFN-γ can also be measured in the same assay. […]
Lymphocytes were then seeded to a 96-well plate pre-coated with anti-CD3 monoclonal antibody (OKT3) at 25 ng/ml and immediately, the test compounds (Peak 1, mixture 1 acid; Peak 1, mixture 2 acid; AH-13205 racemate; PGE2) in appropriate dilutions were added to corresponding wells according to the experimental design. […] The levels of IFN-γ was assessed by using the ProteoPlex 16 well human cytokine array assay kit according to the manufacturer's instruction.

[3] = test system: TNFα production by LPS-stimulated monocytes; experiment: Monocyte assay: LPS-induced TNFα secretion; type: cell-based, human; details: Table 11/FIG. 14, mean of three donors, LPS 100 ng/ml, 24 h
Source text: Monocytes are peripheral mononuclear phagocytes that participate in inflammatory responses. TNFα production by monocytes plays an important role in inflammatory responses and can cause considerable tissue damage if the level remained unchecked. Inhibition of TNFα secretion by activated monocytes may provide an attractive therapy for the treatment of inflammatory conditions.
A 96 well in vitro assay was established to determine the effects of test compounds on LPS-induced TNFα secretion by human peripheral blood monocytes. The level of TNFα in assay supernatants was quantified using a standard sandwich ELISA.
Human peripheral blood mononuclear cells from healthy volunteers were isolated from whole blood by Ficoll-Hypaque density centrifugation and adherence to plastic. The non-adherent lymphocyte fraction was used to set up the lymphocyte assay and the adherent monocytes were then recovered by scraping and subsequently used in the monocyte assay.
For the monocyte assay, the cells were plated onto 96-well plates and pre-treated for 1 hour at 37° C./5% CO2 with the test compound (Peak 1, mixture 1 acid; Peak 1, mixture 2 acid; AH-13205 racemate), followed by the addition of LPS (100 ng/ml) to initiate the reaction. The plate was incubated for 24 hours and supernatants were recovered for the measurement of TNFα production by ELISA.

[4] = biological target: T1, human EP2 receptor (Homo sapiens, UniProt P43116); experiment: cAMP production in HEK cells stably expressing the human EP2 receptor; type: cell-based; details: 15 min stimulation, 4 experiments, logarithm of EC50
T1 construct: expressed in transfected cells; host or cells: HEK cells (HEK-EP2)
Procedure: The following describes an in vitro assay to determine the effect of compounds on cyclase production, that is, to determine their functional efficacy at the EP2 receptor.
HEK cells stably expressing the human EP2 receptor were used for these assays. HEK-EP2 cells were cultured in 96-well, poly-L-lysine coated plates at a density of 50,000 cells/well, and grown to confluence in humidified […]/5% CO2 at 37° C. Culture medium was DMEM supplemented with 10% foetal bovine serum, 100 U/ml penicillin, […] streptomycin, 2.5 μg/ml fungizone, 2 mM glutamine, 250 μg/ml geneticin and 200 μg/ml zeocin.
On reaching confluence, culture media was rinsed off using DMEM with no additions, before 175 μl assay buffer (DMEM containing 1 mM 3-isobutyl-1-methylxanthine and 3 μM indomethacin) was added to each well. This was allowed to incubate for 1 hr before the cells were stimulated with the test compounds (in triplicate) at final concentrations of 10^−9M to 10^−5M for 15 minutes. The assay was terminated by the addition of 25 μl 1M hydrochloric acid. Plates were then frozen for a minimum of 12 hours or until required for radioligand displacement assay.
Plates were thawed quickly at 37° C., and neutralised with 25 μl 1M sodium hydroxide. 30 μl of supernatant was transferred to 96-well Millipore (MAFNOB) plates coated with 0.1% Polyethylenimine. These supernatants were diluted by addition of 90 μl cAMP assay buffer (50 mM Tris, 5 mM EDTA, pH 7.0). A cAMP standard curve (10^−11M to 10^−5M) was constructed. 15 μl of 3′:5′-cAMP-dependent protein kinase (final concentration 8 μg/well), and 15 μl [^3H]-cAMP (final concentration 2 nM/well) were added to each well.
Plates were incubated on ice for 2 hours, before bound and free radiolabel were separated by vacuum filtration harvesting on the Millipore manifold, using ice cold water as the termination buffer. […]
Radioactivity was determined using the Microbeta Trilux scintillation counter. cAMP accumulation was determined from the standard curve, and the values plotted as pmoles cAMP/well.

[5] = biological target: T1, human EP2 receptor; experiment: Radioligand ([3H]PGE2) competition displacement binding, human EP2 receptor membranes; details: for pKi EP2: human EP2, [3H]PGE2 displacement, Cheng-Prusoff, mean of 4 experiments
Procedure: (§1) Membranes were prepared from cells stably transfected with human EP receptor cDNA. In brief, cells were cultured to confluency, scraped from culture flasks, and centrifuged (800 g, 8 minutes, 4° C.). Cells were twice washed in ice cold homogenisation buffer containing 10 mM Tris-HCl, 1 mM EDTA.2Na, 250 mM sucrose, 1 mM PMSF, 0.3 mM indomethacin, pH 7.4, homogenised and re-centrifuged as before. The supernatant was stored on ice and pellets re-homogenised and re-spun. Supernatants were pooled and centrifuged at 40000 g, 10 minutes, 4° C. Resultant membrane pellets were stored at −80° C. until use.
(§2) For assay, membranes expressing human EP4, EP3, EP2 or EP1 receptors were incubated in Millipore (MHVBN45) plates containing assay buffer, radiolabelled [^3H]PGE2 and 0.1 to 10 000 nM concentrations of compounds. Incubations were performed at suitable temperatures and for suitable times to allow equilibrium to be reached. Non-specific binding was determined in the presence of 10 uM PGE2. Bound and free radiolabel was separated by vacuum manifold filtration using appropriate wash buffers, and bound radiolabel was determined by scintillation counting. Constituents of each of the buffers are included in table 4 below.
(§3) The affinity or pKi of each compound for each receptor was calculated from the concentration causing 50% radioligand displacement (IC50) using the Cheng-Prusoff equation: […]
(§4) This approach follows that set out in Kenakin, T. P., Pharmacologic analysis of drug receptor interaction. Raven Press, New York, 2nd edition.

[6] = biological target: T2, human EP4 receptor (Homo sapiens, UniProt P35408); experiment: Radioligand ([3H]PGE2) competition displacement binding, human EP4 receptor membranes; details: human EP4, [3H]PGE2 displacement
T2 construct: expressed in transfected cells
Procedure: as §1, §2, §3, §4

[7] = biological target: T3, human EP3 receptor (Homo sapiens, UniProt P43115); experiment: Radioligand ([3H]PGE2) competition displacement binding, human EP3 receptor membranes; details: human EP3, [3H]PGE2 displacement
T3 construct: expressed in transfected cells
T3 sequence (P43115 1-390): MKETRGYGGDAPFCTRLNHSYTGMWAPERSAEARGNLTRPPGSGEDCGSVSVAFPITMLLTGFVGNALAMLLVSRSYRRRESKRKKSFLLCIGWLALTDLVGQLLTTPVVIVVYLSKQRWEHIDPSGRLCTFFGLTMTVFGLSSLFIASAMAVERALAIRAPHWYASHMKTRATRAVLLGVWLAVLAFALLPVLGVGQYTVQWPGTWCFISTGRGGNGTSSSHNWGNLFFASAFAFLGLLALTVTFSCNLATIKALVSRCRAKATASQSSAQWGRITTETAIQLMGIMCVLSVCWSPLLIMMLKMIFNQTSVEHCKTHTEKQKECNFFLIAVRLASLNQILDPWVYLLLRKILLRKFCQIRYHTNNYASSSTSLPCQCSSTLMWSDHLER
Procedure: as §1, §2, §3, §4

T1 sequence (P43116 whole entry): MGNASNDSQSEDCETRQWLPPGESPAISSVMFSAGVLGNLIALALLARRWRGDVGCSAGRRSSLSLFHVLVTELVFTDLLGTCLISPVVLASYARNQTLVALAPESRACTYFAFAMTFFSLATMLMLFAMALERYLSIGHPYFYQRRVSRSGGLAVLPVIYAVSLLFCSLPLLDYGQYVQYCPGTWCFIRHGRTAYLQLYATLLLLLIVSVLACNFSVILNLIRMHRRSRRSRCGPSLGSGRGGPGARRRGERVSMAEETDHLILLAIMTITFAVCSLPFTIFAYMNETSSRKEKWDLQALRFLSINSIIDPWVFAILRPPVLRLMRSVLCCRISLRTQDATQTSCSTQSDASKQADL
T2 sequence (P35408 whole entry): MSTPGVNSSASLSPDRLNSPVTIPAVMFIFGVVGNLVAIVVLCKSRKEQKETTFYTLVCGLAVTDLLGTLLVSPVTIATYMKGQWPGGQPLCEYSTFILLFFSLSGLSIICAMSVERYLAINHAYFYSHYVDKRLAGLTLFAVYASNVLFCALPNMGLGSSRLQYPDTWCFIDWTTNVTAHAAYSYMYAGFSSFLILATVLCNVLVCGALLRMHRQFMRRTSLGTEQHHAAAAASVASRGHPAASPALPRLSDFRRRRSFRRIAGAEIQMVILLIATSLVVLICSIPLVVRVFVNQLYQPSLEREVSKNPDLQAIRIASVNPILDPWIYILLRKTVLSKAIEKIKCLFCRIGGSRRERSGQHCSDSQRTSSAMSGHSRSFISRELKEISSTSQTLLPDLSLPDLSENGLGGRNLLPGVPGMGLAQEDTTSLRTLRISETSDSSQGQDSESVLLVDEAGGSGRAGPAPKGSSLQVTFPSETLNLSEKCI

Row | Mean Log (EC50), cAMP production [4] | pKi EP2 [5] | pKi EP4 [6] | pKi EP3 [7] | Compound | effect on EFS-evoked contractions (words) [1] | further results
1 | – | – | – | – | CCCCCC(O)c1ccc(C2CCC(=O)C2CCCCCCC(=O)O)cc1 (racemic) [AH13205, (±)-trans-2-[4-(1-hydroxyhexyl)phenyl]-5-oxo-cyclopentaneheptanoic acid, reference compound] | concentration-dependent inhibition | effect on EFS-evoked contractions (words) ([1]; listed as AH-13205): inhibit electrically-induced contractions
2 | – | – | – | – | CCCCC[C@H](O)c1ccc([C@H]2CCC(=O)[C@@H]2CCCCCCC(=O)O)cc1 (single isomer, unassigned) [Peak 1, Mixture 1 acid] | concentration-dependent inhibition | effect on interferon gamma release [2]: concentration-dependently inhibit interferon gamma release
3 | −7.25 | 6.9 | 5.1 | 4.8 | CCCCC[C@@H](O)c1ccc([C@H]2CCC(=O)[C@@H]2CCCCCCC(=O)O)cc1 (single isomer, unassigned; peak 1) [Peak 1, Mixture 2 acid] | concentration-dependent inhibition | Mean Log (EC50), inhibition of TNFα production by LPS-stimulated monocytes ([3]; logarithm of EC50): −5.172; EC50 ([3]; read-out: Mean EC50, inhibition of TNFα production by LPS-stimulated monocytes): 6.73 µM; selectivity for EP2 among the stereoisomers ([5]; from Table 5 pKi values, EP2 versus other EP receptors): most selective; maximum inhibition of EFS-induced contractions [1]: 57±2%; pEC50, inhibition of EFS-evoked response ([1]; 1×10^-7 to 1×10^-4 M): 5.3±0.1
4 | −6.49 | 5.8 | 4.5 | 4.8 | CCCCC[C@H](O)c1ccc([C@@H]2CCC(=O)[C@H]2CCCCCCC(=O)O)cc1 (single isomer, unassigned; peak 2) [Peak 2, Mixture 1 acid] | – | –
5 | −6.39 | 6.3 | 4.8 | 4.7 | CCCCC[C@@H](O)c1ccc([C@@H]2CCC(=O)[C@H]2CCCCCCC(=O)O)cc1 (single isomer, unassigned; peak 2) [Peak 2, Mixture 2 acid] | – | –
6 | – | – | – | – | CC(C)(C)NCC(O)c1cc(O)cc(O)c1 (centres unmarked) [terbutaline, reference compound] | no significant inhibitory effect | –
